Experimental data from BigSolDB 2.1.

CC(=O)Nc1ccc(O)cc1
solubility (mole fraction)
Settings	298.15 K	303.15 K	308.15 K	313.15 K	318.15 K	323.15 K	328.15 K	333.15 K
in transcutol	0.111	0.118	0.126	0.134	0.144	0.153	0.166	0.178
in water	0.0016	0.0019	0.0023	0.0027	0.0033	0.004	0.0047	0.0055
